In the supplement of paper PMC10307832:

Key:
Experiment in all cases: relative viability (nuclei count vs DMSO), 5 days (fraction); higher = more cells survive
RO-3306 + Luminespib = compound: C1=CC2=C(C=CC(=C2)C=C3C(=O)NC(=NCC4=CC=CS4)S3)N=C1 [RO-3306] + CCNC(=O)c1noc(-c2cc(C(C)C)c(O)cc2O)c1-c1ccc(CN2CCOCC2)cc1 [Luminespib] (partner 0.01 µM)
Procedure, shortened: (§1)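 Lung cancer cell lines in 1536-well plates got either a single drug or a fixed anchor-drug dose together with five library-drug doses (not always all listed) in √10 steps, by pin tool, on the day after seeding. Nuclei were counted after 5 days, and relative viability is the treated-to-vehicle ratio of nuclei counts. Values are medians of duplicate plates.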

RO-3306 + Foretinib = compound: C1=CC2=C(C=CC(=C2)C=C3C(=O)NC(=NCC4=CC=CS4)S3)N=C1 [RO-3306] + COc1cc2c(Oc3ccc(NC(=O)C4(C(=O)Nc5ccc(F)cc5)CC4)cc3F)ccnc2cc1OCCCN1CCOCC1 [Foretinib] (partner 0.25 µM)
Procedure, shortened: as §1

RO-3306 + Pictilisib = compound: C1=CC2=C(C=CC(=C2)C=C3C(=O)NC(=NCC4=CC=CS4)S3)N=C1 [RO-3306] + CS(=O)(=O)N1CCN(Cc2cc3nc(-c4cccc5[nH]ncc45)nc(N4CCOCC4)c3s2)CC1 [Pictilisib] (partner 1 µM)
Procedure, shortened: as §1

RO-3306 + Vorinostat = compound: C1=CC2=C(C=CC(=C2)C=C3C(=O)NC(=NCC4=CC=CS4)S3)N=C1 [RO-3306] + O=C(CCCCCCC(=O)Nc1ccccc1)NO [Vorinostat] (partner 1 µM)
Procedure, shortened: as §1

UMC-11
relative viability (RO-3306 + Luminespib; first compound 0.01 µM): 0.955 | relative viability (RO-3306 + Luminespib; first compound 0.03162 µM): 0.908 | relative viability (RO-3306 + Luminespib; first compound 0.1 µM): 1.05 | relative viability (RO-3306 + Luminespib; first compound 0.3162 µM): 1.08 | relative viability (RO-3306 + Luminespib; first compound 1 µM): 1.06 | relative viability (RO-3306 + Foretinib; first compound 0.01 µM): 0.999 | relative viability (RO-3306 + Foretinib; first compound 0.03162 µM): 0.772 | relative viability (RO-3306 + Foretinib; first compound 0.1 µM): 1.05 | relative viability (RO-3306 + Foretinib; first compound 0.3162 µM): 1.21 | relative viability (RO-3306 + Foretinib; first compound 1 µM): 1.16 | relative viability (RO-3306 + Pictilisib; first compound 0.01 µM): 1.16 | relative viability (RO-3306 + Pictilisib; first compound 0.03162 µM): 0.729 | relative viability (RO-3306 + Pictilisib; first compound 0.1 µM): 0.811 | relative viability (RO-3306 + Pictilisib; first compound 0.3162 µM): 0.859 | relative viability (RO-3306 + Pictilisib; first compound 1 µM): 0.617 | relative viability (RO-3306 + Vorinostat; first compound 0.01 µM): 0.386 | relative viability (RO-3306 + Vorinostat; first compound 0.03162 µM): 0.376 | relative viability (RO-3306 + Vorinostat; first compound 0.1 µM): 0.384 | relative viability (RO-3306 + Vorinostat; first compound 0.3162 µM): 0.339 | relative viability (RO-3306 + Vorinostat; first compound 1 µM): 0.322
